From the NIST ThermoML archive (doi:10.1021/je5010214)

Conditions: Liquid, Vibrating tube method

CCCCCCC [heptane]
Conditions | mass density [kg/m3]
323.15 K, 34081 kPa | 690.434
323.15 K, 35113 kPa | 691.624
323.15 K, 37953 kPa | 693.659
323.15 K, 42011 kPa | 696.516
323.15 K, 48025 kPa | 700.814
323.15 K, 49934 kPa | 702.105
323.15 K, 52114 kPa | 703.681
323.15 K, 54964 kPa | 705.509
323.15 K, 58045 kPa | 707.475
323.15 K, 60050 kPa | 708.827
323.15 K, 62131 kPa | 710.008
323.15 K, 64999 kPa | 711.842
323.16 K, 920.7 kPa | 659.343
323.16 K, 27958 kPa | 685.975
323.16 K, 30055 kPa | 687.083
323.16 K, 33067 kPa | 689.946
323.16 K, 40047 kPa | 695.097
323.16 K, 44937 kPa | 698.783
323.16 K, 66131 kPa | 712.551
328.15 K, 100.8 kPa | 653.868
328.15 K, 289.9 kPa | 654.182
328.15 K, 897.5 kPa | 654.815
328.15 K, 994.1 kPa | 655.012
328.15 K, 1988.8 kPa | 656.162
328.15 K, 2996.7 kPa | 657.408
328.15 K, 5013.4 kPa | 659.794
328.15 K, 6974.9 kPa | 662.023
328.15 K, 9017 kPa | 664.204
328.15 K, 10040 kPa | 665.257
328.15 K, 24924 kPa | 679.489
328.15 K, 27979 kPa | 682.036
328.15 K, 29958 kPa | 683.395
328.15 K, 32060 kPa | 685.102
328.15 K, 33066 kPa | 685.969
328.15 K, 33107 kPa | 685.992
328.15 K, 34013 kPa | 687.01
328.15 K, 35030 kPa | 687.796
328.15 K, 38010 kPa | 690.025
328.15 K, 39969 kPa | 691.415
328.15 K, 41959 kPa | 692.865
328.15 K, 44953 kPa | 695.094
328.15 K, 47978 kPa | 697.371
328.15 K, 49926 kPa | 698.804
328.15 K, 51997 kPa | 700.259
328.15 K, 54947 kPa | 702.284
328.15 K, 57939 kPa | 704.221
328.15 K, 59991 kPa | 705.64
328.15 K, 61982 kPa | 707.057
328.15 K, 65032 kPa | 708.835
328.15 K, 66046 kPa | 709.499
328.16 K, 501 kPa | 654.211
328.16 K, 12210 kPa | 667.562
328.16 K, 15055 kPa | 670.204
328.16 K, 18061 kPa | 673.216
328.16 K, 20279 kPa | 675.247
328.16 K, 22013 kPa | 676.775
333.15 K, 100.4 kPa | 649.302
333.15 K, 532.6 kPa | 649.653
333.15 K, 897.8 kPa | 650.259
333.15 K, 1987.2 kPa | 651.687
333.15 K, 3023.4 kPa | 653.063
333.15 K, 4997.4 kPa | 655.338
333.15 K, 7002.4 kPa | 657.844
333.15 K, 9032 kPa | 660.047
333.15 K, 10210 kPa | 661.268
333.15 K, 15008 kPa | 666.206
333.15 K, 22034 kPa | 672.882
333.15 K, 28040 kPa | 678.188
333.15 K, 30016 kPa | 679.579
333.15 K, 32067 kPa | 681.185
333.15 K, 32977 kPa | 681.946
333.15 K, 34086 kPa | 683.474
333.15 K, 35075 kPa | 684.235
333.15 K, 37894 kPa | 686.324
333.15 K, 40111 kPa | 687.848
333.15 K, 41947 kPa | 689.191
333.15 K, 44974 kPa | 691.567
333.15 K, 47936 kPa | 693.899
333.15 K, 49920 kPa | 695.372
333.15 K, 51953 kPa | 696.893
333.15 K, 54876 kPa | 699.008
333.15 K, 58057 kPa | 700.988
333.15 K, 59993 kPa | 702.482
333.15 K, 62049 kPa | 703.927
333.15 K, 64970 kPa | 705.65
333.15 K, 66005 kPa | 706.481
333.16 K, 303.5 kPa | 649.622
333.16 K, 1003 kPa | 650.554
333.16 K, 12011 kPa | 663.322
333.16 K, 17992 kPa | 669.217
333.16 K, 20036 kPa | 671.108
333.16 K, 25027 kPa | 675.678
333.16 K, 33073 kPa | 682.004
338.15 K, 100.4 kPa | 644.915
338.15 K, 309.8 kPa | 645.161
338.15 K, 561.6 kPa | 645.341
338.15 K, 898.5 kPa | 645.924
338.15 K, 1014.1 kPa | 646.212
338.15 K, 2936.1 kPa | 648.694
338.15 K, 5018.6 kPa | 651.205
338.15 K, 10034 kPa | 657.126
338.15 K, 14885 kPa | 662.203
338.15 K, 17956 kPa | 665.481
338.15 K, 19927 kPa | 667.369
338.15 K, 22041 kPa | 669.319
338.15 K, 25026 kPa | 672.169
338.15 K, 29994 kPa | 676.134
338.15 K, 32882 kPa | 678.515
338.15 K, 33937 kPa | 679.921
338.15 K, 35012 kPa | 680.879
338.15 K, 39987 kPa | 684.582
338.15 K, 41990 kPa | 686.092
338.15 K, 44978 kPa | 688.463
338.15 K, 47971 kPa | 690.744
338.15 K, 49999 kPa | 692.38
338.15 K, 52127 kPa | 693.976
338.15 K, 57940 kPa | 697.82
338.15 K, 60014 kPa | 699.459
338.15 K, 65012 kPa | 702.688
338.15 K, 66057 kPa | 703.55
338.16 K, 2000.2 kPa | 647.409
338.16 K, 6917.3 kPa | 653.552
338.16 K, 9046.9 kPa | 656.063
338.16 K, 11959 kPa | 659.361
338.16 K, 27976 kPa | 674.704
338.16 K, 31949 kPa | 677.899
338.16 K, 32882 kPa | 678.499
338.16 K, 37962 kPa | 683.24
338.16 K, 54992 kPa | 696.066
338.16 K, 62074 kPa | 700.918
343.15 K, 105.1 kPa | 640.758
343.15 K, 297.3 kPa | 640.918
343.15 K, 520.3 kPa | 641.218
343.15 K, 911.7 kPa | 641.765
343.15 K, 1017.7 kPa | 641.938
343.15 K, 1994.6 kPa | 643.242
343.15 K, 2968.3 kPa | 644.553
343.15 K, 4994.8 kPa | 647.152
343.15 K, 6976.6 kPa | 649.726
343.15 K, 9002.6 kPa | 652.141
343.15 K, 10060 kPa | 653.267
343.15 K, 12024 kPa | 655.625
343.15 K, 14928 kPa | 658.769
343.15 K, 17975 kPa | 661.975
343.15 K, 19985 kPa | 664
343.15 K, 22033 kPa | 666.001
343.15 K, 25090 kPa | 668.93
343.15 K, 28045 kPa | 671.724
343.15 K, 30082 kPa | 673.379
343.15 K, 32170 kPa | 675.296
343.15 K, 33053 kPa | 676.043
343.15 K, 33097 kPa | 676.076
343.15 K, 35030 kPa | 677.808
343.15 K, 37943 kPa | 680.185
343.15 K, 40012 kPa | 681.817
343.15 K, 41972 kPa | 683.353
343.15 K, 44927 kPa | 685.751
